Like-named read-outs stand apart in the source and are kept apart here. Starred links: 1 amine or outer side, 2 acyl side, 3 side chain; linkers in the order of their positions; H or OH if unused. Non-standard residues stand in square brackets, D forms with d. Residues, ends and D or L forms follow the SMILES beside them. Groups on a side chain read outwards from the residue. No end group written: not given here. *: point of attachment. C20 diacid = O=C(O)CCCCCCCCCCCCCCCCCCC(=O)*; C18 diacid = O=C(O)CCCCCCCCCCCCCCCCC(=O)*; αMePhe(2-F) = C[C@](N)(Cc1ccccc1F)C(=O)O; γGlu = O=C(O)[C@H](CCC(=O)[*:2])N[*:1]; αMe4Pal = C[C@](N)(Cc1ccncc1)C(=O)O; αMeY = C[C@](N)(Cc1ccc(O)cc1)C(=O)O; 4Pal = N[C@@H](Cc1ccncc1)C(=O)O; αMeL = CC(C)C[C@](C)(N)C(=O)O; αMeS = C[C@](N)(CO)C(=O)O; Orn = NCCC[C@H](N)C(=O)O; AEEA = NCCOCCOCC(=O)O; Aib = CC(C)(N)C(=O)O
Experiments:
Assay type in all cases: cell-based
hGIPR [1] = target: T1, hGIPR (Homo sapiens, UniProt P48546); test: Functional cAMP activity in the presence of 1% HSA; conditions: read-out: cAMP Rel EC50, hGIPR
T1 sequence (P48546 22-466): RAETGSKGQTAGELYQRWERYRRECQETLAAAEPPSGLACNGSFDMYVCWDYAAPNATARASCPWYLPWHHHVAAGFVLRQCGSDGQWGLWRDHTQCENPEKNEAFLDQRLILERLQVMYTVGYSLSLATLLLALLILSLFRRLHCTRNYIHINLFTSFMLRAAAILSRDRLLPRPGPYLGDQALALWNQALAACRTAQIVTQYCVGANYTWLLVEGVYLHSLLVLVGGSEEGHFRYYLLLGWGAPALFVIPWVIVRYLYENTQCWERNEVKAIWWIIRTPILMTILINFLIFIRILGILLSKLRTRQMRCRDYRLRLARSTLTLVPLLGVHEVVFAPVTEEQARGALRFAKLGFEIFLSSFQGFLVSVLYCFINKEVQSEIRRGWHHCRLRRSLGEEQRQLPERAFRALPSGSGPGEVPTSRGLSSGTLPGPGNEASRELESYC

hGLP-1R [2] = target: T2, hGLP-1R (Homo sapiens, UniProt P43220); test: Functional cAMP activity in the presence of 1% HSA; conditions: read-out: cAMP Rel EC50, hGLP-1R
T2 sequence (P43220 24-463): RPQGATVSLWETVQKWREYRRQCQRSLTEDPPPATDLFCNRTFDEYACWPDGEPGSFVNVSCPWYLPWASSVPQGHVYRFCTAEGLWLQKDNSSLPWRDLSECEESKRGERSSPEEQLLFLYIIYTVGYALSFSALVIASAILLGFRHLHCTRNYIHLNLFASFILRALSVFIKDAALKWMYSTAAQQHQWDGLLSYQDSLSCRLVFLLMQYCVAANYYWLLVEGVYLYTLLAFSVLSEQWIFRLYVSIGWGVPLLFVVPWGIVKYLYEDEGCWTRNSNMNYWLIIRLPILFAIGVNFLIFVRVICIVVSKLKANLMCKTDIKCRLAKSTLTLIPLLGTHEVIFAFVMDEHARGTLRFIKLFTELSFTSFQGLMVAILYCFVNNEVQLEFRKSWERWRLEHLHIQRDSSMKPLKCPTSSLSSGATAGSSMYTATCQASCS

human GcgR = human GcgR (Homo sapiens, UniProt P47871); test: Functional cAMP activity in the presence of 1% HSA; conditions: read-out: cAMP Rel EC50, hGcgR
Sequence of human GcgR (P47871 26-477): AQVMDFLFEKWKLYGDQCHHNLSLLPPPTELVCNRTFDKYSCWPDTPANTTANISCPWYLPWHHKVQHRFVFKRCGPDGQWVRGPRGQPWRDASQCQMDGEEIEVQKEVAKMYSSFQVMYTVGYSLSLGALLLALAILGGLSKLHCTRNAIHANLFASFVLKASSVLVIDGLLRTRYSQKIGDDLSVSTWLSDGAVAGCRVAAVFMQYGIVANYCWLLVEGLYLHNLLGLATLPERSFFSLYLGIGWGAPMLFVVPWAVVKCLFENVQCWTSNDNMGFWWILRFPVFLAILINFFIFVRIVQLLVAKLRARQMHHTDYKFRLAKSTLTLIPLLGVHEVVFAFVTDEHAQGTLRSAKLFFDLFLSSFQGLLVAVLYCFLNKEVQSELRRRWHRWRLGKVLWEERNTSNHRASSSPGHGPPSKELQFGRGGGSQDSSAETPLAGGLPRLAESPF

hGIPR [3] = target: T1, hGIPR; test: Functional cAMP activation in the presence of 0.1% casein (no HSA); conditions: read-out: Relative cAMP EC50, hGIPR;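 on Relative cAMP EC50, hGIPR: intracellular cAMP rise after 30 min at 37 °C read by HTRF against a standard curve, scaled between buffer alone (0%) and top control ligand concentration (100%), four-parameter fit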;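 on Relative cAMP EC50, hGLP-1R: intracellular cAMP rise after 30 min at 37 °C read by HTRF, normalized between buffer only (0%) and maximal control ligand (100%), four-parameter variable-slope fit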;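 on Relative cAMP EC50, hGcgR: intracellular cAMP rise after 30 min at 37 °C, read by HTRF against a cAMP standard curve, scaled from buffer only (0%) to maximal control ligand response (100%)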
hGLP-1R [4] = target: T2, hGLP-1R; test: as above; conditions: read-out: Relative cAMP EC50, hGLP-1R
hGcgR = hGcgR (Homo sapiens, UniProt P47871); test: as above; conditions: read-out: Relative cAMP EC50, hGcgR;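 further: intracellular cAMP rise after 30 min at 37 °C, read by HTRF against a cAMP standard curve, scaled from buffer only (0%) to maximal control ligand response (100%)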
Sequence of hGcgR (P47871 26-477): as above

[5] = in the presence of 0.1% casein (no HSA), geometric mean
[6] = 0.1% casein, no HSA, geometric mean

Row | Molecule | EC50 (hGIPR [1]) [nM] | EC50 (hGLP-1R [2]) [nM] | EC50 (human GcgR) [nM] | EC50 (hGIPR [3]; [5]) [nM] | EC50 (hGLP-1R [4]; [5]) [nM] | EC50 (hGcgR; [5]) [nM] | EC50 (hGIPR [3]) [nM] | EC50 (hGLP-1R [4]) [nM] | EC50 (hGcgR) [nM] | EC50 (hGIPR [3]; [6]) [nM] | EC50 (hGLP-1R [4]; [6]) [nM] | EC50 (hGcgR; [6]) [nM]
1 | CC[C@H](C)[C@H](NC(=O)[C@H](Cc1ccccc1)NC(=O)[C@H](C)NC(=O)C(C)(C)NC(=O)[C@H](CCC(N)=O)NC(=O)[C@H](C)NC(=O)[C@H](CCCCNC(=O)COCCOCCNC(=O)CC[C@H](NC(=O)CCCCCCCCCCCCCCCCC(=O)O)C(=O)O)NC(=O)[C@H](CCCCN)NC(=O)[C@H](CC(=O)O)NC(=O)[C@H](CC(C)C)NC(=O)[C@](C)(CC(C)C)NC(=O)[C@H](CCCN)NC(=O)[C@H](CO)NC(=O)[C@H](Cc1ccccc1)NC(=O)[C@H](CC(=O)O)NC(=O)[C@H](CO)NC(=O)[C@@H](NC(=O)[C@H](Cc1ccccc1)NC(=O)[C@@H](NC(=O)CNC(=O)[C@H](CCC(N)=O)NC(=O)C(C)(C)NC(=O)[C@@H](N)Cc1ccc(O)cc1)[C@@H](C)O)[C@@H](C)O)C(=O)N[C@@H](CCC(=O)O)C(=O)N[C@@H](Cc1ccc(O)cc1)C(=O)N[C@@H](CC(C)C)C(=O)N[C@@H](CC(C)C)C(=O)N[C@@H](CCC(=O)O)C(=O)N[C@H](C)C(=O)NCC(=O)N[C@@H](Cc1ccncc1)C(=O)N[C@@H](CO)C(=O)N[C@@H](CO)C(=O)NCC(=O)N[C@@H](C)C(=O)N1CCC[C@H]1C(=O)N1CCC[C@H]1C(=O)N1CCC[C@H]1C(=O)N[C@@H](CO)C(=O)NCC(=O)N[C@@H](CCC(=O)O)C(N)=O [Example 252] | 24.8 | 504 | 528 | 0.147 | 3.54 | 2.61 |  |  |  |  |  | 
2 | CC[C@H](C)[C@H](NC(=O)[C@H](Cc1ccccc1)NC(=O)[C@H](C)NC(=O)C(C)(C)NC(=O)[C@H](CCC(N)=O)NC(=O)[C@H](C)NC(=O)[C@H](CCCCNC(=O)COCCOCCNC(=O)CC[C@H](NC(=O)CCCCCCCCCCCCCCCCC(=O)O)C(=O)O)NC(=O)[C@H](CCCCN)NC(=O)[C@H](CC(=O)O)NC(=O)[C@H](CC(C)C)NC(=O)[C@](C)(CC(C)C)NC(=O)[C@@H](NC(=O)[C@H](CO)NC(=O)[C@H](Cc1ccc(O)cc1)NC(=O)[C@H](CC(=O)O)NC(=O)[C@H](CO)NC(=O)[C@@H](NC(=O)[C@](C)(Cc1ccccc1F)NC(=O)[C@@H](NC(=O)CNC(=O)[C@H](CCC(N)=O)NC(=O)C(C)(C)NC(=O)[C@@H](N)Cc1ccc(O)cc1)[C@@H](C)O)[C@@H](C)O)[C@@H](C)CC)C(=O)N[C@@H](CCC(=O)O)C(=O)N[C@@H](Cc1ccc(O)cc1)C(=O)N[C@@H](CC(C)C)C(=O)N[C@@H](CCC(=O)O)C(=O)N[C@@H](CCC(=O)O)C(=O)NCC(=O)NCC(=O)N1CCC[C@H]1C(=O)N[C@@H](CO)C(=O)N[C@@H](CO)C(=O)NCC(=O)N[C@@H](C)C(=O)N1CCC[C@H]1C(=O)N1CCC[C@H]1C(=O)N1CCC[C@H]1C(=O)N[C@@H](CCC(=O)O)C(N)=O [Example 400] (H-Y[Aib]QGT[αMePhe(2-F)]TSDYSI[αMeL]LDKK([AEEA-γGlu-C18 diacid])AQ[Aib]AFIEYLEEGGPSSGAPPPE-NH2) | 3.86 | 29.1 | 265 |  |  |  | 0.0158 | 0.253 | 2.53 |  |  | 
3 | H-Y[Aib]QGT[αMePhe(2-F)]TSD[4Pal][αMeS]I[αMeL]LD[Orn]K([AEEA-γGlu-C18 diacid])AA[Aib]EFI[dE][αMeY]LVEGGPSSGAPPPSGS-NH2 [Example 693] | 1.1 | 18 | 304 |  |  |  | 0.0104 | 0.161 | 2.39 |  |  | 
4 | H-Y[Aib]QGT[αMePhe(2-F)]TSD[4Pal][αMeS]I[αMeL]LD[Orn]K([γGlu-γGlu-C18 diacid])AQ[αMe4Pal]EFI[dE][αMeY]LIEGGPPS[Aib][Orn]PPP[Orn]GS-NH2 [Example 1226] | 0.443 | 34.4 | 184 |  |  |  |  |  |  | 0.00539 | 0.264 | 1.65
5 | H-Y[Aib]QGT[αMePhe(2-F)]TSD[4Pal]SILLDKK([γGlu-γGlu-C18 diacid])AQ[Aib]AFIE[αMeY]LEEGGPSSGAPPPSGEGE-NH2 [Example 667] | 1.46 | 33 | 215 |  |  |  | 0.0217 | 0.42 | 2.34 |  |  | 
6 | H-Y[Aib]QGTFTSDFSK[αMeL]LDKK([AEEA-γGlu-C18 diacid])AQ[Aib]AFIEYLIE[Aib]GESSGAPPPSGS-NH2 [Example 216] | 12 | 90.6 | 895 | 0.0887 | 0.52 | 2.7 |  |  |  |  |  | 
7 | H-Y[Aib]QGT[αMePhe(2-F)]TSD[4Pal]SI[αMeL]LD[Orn]K([AEEA-γGlu-C18 diacid])AQ[αMe4Pal]EFI[dE][αMeY]LLEGGPSSGAPPPSGE-NH2 [Example 615] | 0.95 | 82.9 | 697 |  |  |  | 0.00825 | 0.575 | 3.93 |  |  | 
8 | H-Y[Aib]QGTFTSDFS[Orn][αMeL]LDKK([AEEA-γGlu-C20 diacid])AQ[Aib]AFIEYLLAGGTSSGEPPPSGE-NH2 [Example 106] | 91 | 977 | 2000 | 0.345 | 3.94 | 6.26 |  |  |  |  |  | 
9 | H-Y[Aib]QGT[αMePhe(2-F)]TSD[4Pal][αMeS]I[αMeL]LD[Orn]K([AEEA-γGlu-C18 diacid])AQ[αMe4Pal]EFI[dE][αMeY]LVEGGPSSGEPPPSGSE-NH2 [Example 752] | 1.74 | 44 | 228 |  |  |  | 0.00689 | 0.274 | 1.9 |  |  | 
10 | Y[Aib]QGT[αMePhe(2-F)]TSD[4Pal][αMeS]I[αMeL]LD[Orn]K([γGlu-γGlu-C18 diacid])AQ[Aib][Orn]FI[dE][αMeY]LAEGGPSSGEPPPSGTEE-NH2 [Example 571] | 4.23 | 42.7 | 243 |  |  |  | 0.0746 | 0.603 | 3.27 |  |  | 
11 | Y[Aib]QGT[αMePhe(2-F)]TSD[4Pal][αMeS]I[αMeL]LD[Orn]K([γGlu-γGlu-C18 diacid])AQ[αMe4Pal]EFI[dE][αMeY]LIEGGPSSGAPPPSGE-NH2 [Example 1150] | 0.583 | 30 | 161 | 0.0069 | 0.278 | 1.17 |  |  |  |  |  | 
12 | H-Y[Aib]QGTFTSDFS[Orn][αMeL]LDKK([AEEA-γGlu-C18 diacid])AQ[Aib]AFIEYLLEGGPSSGAPPPGGSE-NH2 [Example 65] | 30.2 | 462 | 808 | 0.739 | 4.21 | 6.49 |  |  |  |  |  | 
13 | H-Y[Aib]QGTFTSDFS[Orn][αMeL]LDKK([AEEA-γGlu-C20 diacid])AQ[Aib]AFIEYLLAGGPSSGAPPPSGS-NH2 [Example 76] | 45.5 | 436 | 2240 | 0.196 | 2.25 | 11.1 |  |  |  |  |  | 
14 | H-Y[Aib]QGT[αMePhe(2-F)]TSD[4Pal][αMeS]I[αMeL]LD[Orn]K([γGlu-Glu-C18 diacid])AQ[Aib][Orn]FI[dE][αMeY]LSEGGPSSGEPPPSGTE-NH2 [Example 565] | 21.9 | 204 | 1770 |  |  |  | 0.107 | 1.24 | 10.3 |  |  | 
15 | Y[Aib]Q[dA]T[αMePhe(2-F)]TSD[4Pal]SI[αMeL]LD[Orn]K([AEEA-γGlu-C18 diacid])AQ[αMe4Pal][Orn]FI[dE][αMeY]LIEGGPSSGEPPPESE-NH2 [Example 765] | 44.6 | 26.1 | 111 |  |  |  | 0.0642 | 0.25 | 0.952 |  |  | 
